From article doi:10.1101/2025.06.05.658205v3, “AsCas12a Exhibits Intrinsic, DNA-Independent ATPase Activity” (biorxiv, 2025)

Target: T1, AsCas12a (Acidaminococcus sp. BV3L6, UniProt U2UMQ6)
T1 construct: gene cas12a; purified wild-type protein, no crRNA mentioned in assay
Assay: radiometric TLC ATPase assay ([…] release)
Format: biochemical
Settings: 200 µM cold ATP, 200 pM [γ-32P]ATP; 12 mM MgCl2, pH 7.5, 37 °C, 1 h; no DNA; labelled compound

T1 sequence (U2UMQ6 whole entry, looked up): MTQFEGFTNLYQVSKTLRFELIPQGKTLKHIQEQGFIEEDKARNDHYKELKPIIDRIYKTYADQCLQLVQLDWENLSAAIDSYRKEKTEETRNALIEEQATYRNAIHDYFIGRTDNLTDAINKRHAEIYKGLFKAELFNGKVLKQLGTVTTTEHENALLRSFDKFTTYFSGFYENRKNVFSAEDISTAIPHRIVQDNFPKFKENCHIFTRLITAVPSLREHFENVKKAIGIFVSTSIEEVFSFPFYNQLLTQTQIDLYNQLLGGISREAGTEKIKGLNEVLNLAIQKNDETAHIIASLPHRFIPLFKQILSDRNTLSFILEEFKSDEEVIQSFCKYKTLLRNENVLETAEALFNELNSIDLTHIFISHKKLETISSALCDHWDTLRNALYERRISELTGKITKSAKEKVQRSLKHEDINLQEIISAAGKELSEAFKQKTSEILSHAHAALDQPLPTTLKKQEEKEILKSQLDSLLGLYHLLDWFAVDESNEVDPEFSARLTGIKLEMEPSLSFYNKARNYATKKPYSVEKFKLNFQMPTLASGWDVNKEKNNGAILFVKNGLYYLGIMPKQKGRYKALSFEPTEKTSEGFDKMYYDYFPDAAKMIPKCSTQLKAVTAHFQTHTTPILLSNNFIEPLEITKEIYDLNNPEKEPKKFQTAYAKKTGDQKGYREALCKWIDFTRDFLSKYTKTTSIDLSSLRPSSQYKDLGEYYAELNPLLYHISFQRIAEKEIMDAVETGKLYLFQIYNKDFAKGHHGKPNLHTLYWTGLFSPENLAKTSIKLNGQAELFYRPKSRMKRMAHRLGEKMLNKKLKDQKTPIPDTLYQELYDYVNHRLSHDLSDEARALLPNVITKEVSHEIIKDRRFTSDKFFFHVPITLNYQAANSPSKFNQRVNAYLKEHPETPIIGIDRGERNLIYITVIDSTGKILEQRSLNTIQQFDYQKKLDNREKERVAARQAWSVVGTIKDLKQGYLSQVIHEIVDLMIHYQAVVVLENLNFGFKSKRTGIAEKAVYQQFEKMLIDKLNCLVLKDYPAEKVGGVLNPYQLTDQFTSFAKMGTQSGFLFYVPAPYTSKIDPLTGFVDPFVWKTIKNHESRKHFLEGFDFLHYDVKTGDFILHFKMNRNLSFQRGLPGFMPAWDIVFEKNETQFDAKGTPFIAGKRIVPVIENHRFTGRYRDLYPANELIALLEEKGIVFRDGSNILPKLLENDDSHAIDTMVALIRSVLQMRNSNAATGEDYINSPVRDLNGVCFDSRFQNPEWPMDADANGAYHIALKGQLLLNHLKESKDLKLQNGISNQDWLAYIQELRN

Nc1ncnc2c1ncn2[C@@H]1O[C@H](COP(=O)(O)OP(=O)(O)OP(=O)(O)O)[C@@H](O)[C@H]1O [ATP]
radiometric TLC ATPase assay (32Pi release): AsCas12a catalyzed ATP hydrolysis in a concentration and time-dependent manner
